According to article doi:10.1101/2025.03.14.643303, “A genome-scale drug discovery pipeline uncovers new therapeutic targets and a unique p97 allosteric binding site in Schistosoma mansoni” (bioRxiv, 2025):
Where two headings read alike, the source gives them in different places.

Assays:
[1] = tested on: adult S. mansoni worms; set-up: method as in PMID 32973031; conditions: schistosomes in vitro; cited from earlier work
[2] = tested on: adult S. mansoni worms; assay: Treatment of adult S. mansoni worms in culture with inhibitors (attachment to tissue culture substrate, morphology; single 10 μM and dose-response EC50); type: cell-based, Schistosoma mansoni; conditions: worms; Suppl. Fig. 11E; read-out: S. mansoni EC50
[3] = molecular target: S. mansoni p97 (Smp_018240) (Schistosoma mansoni, UniProt G4M0P7); assay: biochemical
[4] = tested on: K48 polyubiquitinated proteins; assay: Western blot of drug-treated worm lysate with K48-linkage specific polyubiquitin antibody; type: cell-based, Schistosoma mansoni; conditions: worm lysate after 48 hr of treatment
Experimental: For drug treatment studies, 10 male adult worms (single or paired with females) were supplemented with either 0.1% DMSO or inhibitor (0.1% DMSO final). […]. After 48 hr, male parasites were separated from females using 0.25% tricaine in Basch Media 169, flash frozen in liquid nitrogen, and stored at −80°C until further processing. Male worm samples were homogenized with a pestle in 50 μL lysis buffer containing 2X sample buffer [0.471 M Tris (pH 6.7 with phosphoric acid), 20% glycerol, 5% SDS), protease inhibitor cocktail (Roche, cOmplete Mini, EDTA-free Tablets) and 10 mM DTT. The lysates were then sonicated on high for 5 min (30 sec on, 30 sec off) using a Bioruptor UCD-200. Lysates were centrifuged for 5 min at 10,000 g to remove debris. Total protein was measured using the Detergent Compatible Bradford Assay (Pierce). 50 μg of protein samples denatured in SDS Sample buffer (95°C for 5 min) were separated on a Bio-Rad 4–20% TGX Stain-Free gel along with Precision Plus Protein Dual Color Standards (Bio-Rad) as a marker. Proteins were then transferred to a nitrocellulose membrane (Bio-Rad). The membrane was blocked in a 1:5 solution of Li-Cor Odyssey Blocking buffer in PBST for 1 hr before being immunoblotted overnight at 4°C with 1:500 K48-linkage Specific Polyubiquitin Antibody (Cell Signaling Technology, 4289S) and 0.01 μg/mL mouse anti-actin antibody (1:10,000) (Developmental Studies Hybridoma Bank, JLA20) diluted in a 1:5 solution of Li-Cor Odyssey Blocking buffer in PBST. The membrane was washed 3x in TBST and then incubated in 1:5 Li-Cor Odyssey Blocking buffer containing the secondary antibodies (1:10,000 Li-Cor, 925–68071, goat anti-rabbit IRDye 680 RD, and 1:20,000 Li-Cor, 925–32280, goat anti-mouse IgM IRDye 800CW) for 1 hr at RT. The blot was washed in TBST 3x before being imaged on a LiCor Odyssey Infrared Imager.

[5] = tested on: HepG2 cells; assay: HepG2 cytotoxicity assay (Cell Titer Glo 2.0); type: cell-based, human; conditions: HepG2
Experimental: HepG2 cells (ATCC) were plated at 2500 cells/well in 50 μL/well, dispersing cells using a 25g needle to break up clumps prior to plating. Plates were incubated for 24hr at 37C, 5% CO2. Following 24hr, 50 μL media containing 0.6% DMSO was added to a set of wells on one plate. The plate and Cell Titer Glo 2.0 reagent were brought to RT. A T=0 read was taken by adding 40 μL reagent/well, rocking the plate at 100 rpm for 2 min, then reading luminescence ~10 min later. […] 50 μL 2x concentrated compound was added to wells containing cells in 50 μL 24 hr after plating. Concentrations were tested in triplicate at following values: 30, 10, 3.3, 1.1, 0.37, 0.12, and 0.04 μM. Plates were incubated for 72 hr at 37C, 5% CO2. Following equilibration to room temperature, 40 μL undiluted reagent was added to each well, the plate rocked at 100 rpm for 2 min and then read for luminescent signal ~10 min later.
Values are plotted in excel and the 50% point determined by interpolation. Values were revisualized in Prism.

S. mansoni p97 (Smp_018240), sequence (G4M0P7 entry or part of it): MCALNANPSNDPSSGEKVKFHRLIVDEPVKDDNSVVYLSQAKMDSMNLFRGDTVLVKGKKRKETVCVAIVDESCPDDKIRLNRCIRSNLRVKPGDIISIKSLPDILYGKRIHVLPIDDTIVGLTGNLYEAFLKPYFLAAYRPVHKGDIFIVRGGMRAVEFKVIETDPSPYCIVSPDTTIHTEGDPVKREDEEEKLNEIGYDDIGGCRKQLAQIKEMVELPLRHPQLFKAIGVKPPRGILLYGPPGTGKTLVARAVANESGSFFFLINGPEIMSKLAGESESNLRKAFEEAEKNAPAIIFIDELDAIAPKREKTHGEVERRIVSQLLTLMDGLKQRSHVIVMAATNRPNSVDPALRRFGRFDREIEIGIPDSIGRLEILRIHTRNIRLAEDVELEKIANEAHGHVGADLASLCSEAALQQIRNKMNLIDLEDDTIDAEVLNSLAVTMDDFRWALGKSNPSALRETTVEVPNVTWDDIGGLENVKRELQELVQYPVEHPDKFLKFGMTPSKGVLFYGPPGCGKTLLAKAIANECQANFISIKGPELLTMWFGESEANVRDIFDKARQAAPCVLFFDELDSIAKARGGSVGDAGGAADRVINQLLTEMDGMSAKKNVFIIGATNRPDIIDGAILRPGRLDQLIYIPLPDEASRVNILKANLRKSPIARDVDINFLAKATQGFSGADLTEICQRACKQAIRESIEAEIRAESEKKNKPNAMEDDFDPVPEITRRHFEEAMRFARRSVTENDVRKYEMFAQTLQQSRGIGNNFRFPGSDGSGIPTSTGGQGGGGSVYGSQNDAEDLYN

Cc1cc2c(C(N)=O)cccc2n1-c1nc2c(c(NCc3ccccc3)n1)COCC2 [CB-5083, reference compound]
parasite death in vitro [1]: sub-micromolar
EC50 [2]: 360 nM
Fold Selectivity ([3]; H. sapiens vs S. mansoni p97 IC50, Suppl. Fig. 11D): 2.0
selectivity for the schistosome enzyme over its human counterpart ([3]; S. mansoni vs H. sapiens p97 IC50): ~ 2 fold
accumulation of K48 polyubiquitinated proteins by western blot [4]: accumulation of proteins targeted for proteasome-mediated degradation
GI50 ([5]; 72 hr, 50% growth inhibition normalized to time = 0, Suppl. Fig. 11A, read-out: GI50): 310 nM
IC50 ([5]; 72 hr, 50% growth inhibition relative to control, Suppl. Fig. 11A, read-out: IC50): 410 nM
GI50 ([5]; Suppl. Fig. 11E, read-out: HepG2 GI50): 310 nM
IC50 ([5]; Suppl. Fig. 11E, read-out: HepG2 IC50): 410 nM

Cc1cc(OCc2nnc(SC3CCCC3)n2-c2cccnc2)ccc1-c1ccc(S(C)(=O)=O)cc1 [NMS-873]
parasite death in vitro [1]: sub-micromolar
IC50 ([3]; recombinant enzyme, Kinase-Glo, Fig. 3D, read-out: S. mansoni (IC50)): 230 ± 75 nM
accumulation of K48 polyubiquitinated proteins by western blot [4]: accumulation of proteins targeted for proteasome-mediated degradation
